Activity calls are given as the source filed them. A value given as a limit tells only on which side of the number the result lay.

Experiment [1] addresses G-protein coupled receptor 35 (Homo sapiens, UniProt Q9HC97). The experiment in a line: inhibition of zaprinast-stimulated GPR35 beta-arrestin translocation – imaging, U2OS, beta-arrestin-GFP, zaprinast agonist, primary screen (AID 2058).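 Also: antagonist potency meaning inhibition of agonist-induced arrestin redistribution.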 The experiment is classed as functional.
Experiment [2] can be described thus: A cytotoxicity screen of small molecule inhibitors of the PhoP region in Salmonella typhi identified in the primary screen. [Related pubchem assays: 1850, 1864, 1985 ]. The experiment is classed as functional.
Experiment [3] has as its target DNA damage-inducible transcript 3 protein (Mus musculus, UniProt P35639). In kind it is functional, Cricetulus griseus.
The target in experiment [4] is Genome polyprotein (dengue virus type 2, UniProt P29990). The experiment in a line: flavivirus cap methylation enzyme inhibition – biochemical, confirmation dose response, primary screen (AID 588689). The experiment is classed as functional.
Experiment [5] deals with BJ. Briefly: BJ-TERT fibroblast viability loss – cell-based, RAS-independent, luminescence, dose response (AID 1933). In kind it is functional. The note with it: Homo sapiens.
The nature of experiment [6]: DRD fibroblast viability loss – cell-based, non-viral oncogenic, luminescence, dose response (AID 1934). The experiment is classed as functional. The settings on record: Homo sapiens.
For experiment [7], the target named is T1, Sentrin-specific protease 7 (Homo sapiens, UniProt Q9BQF6).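 Also: Luminescence-based dose-response confirmation of ultra-high-throughput screening hits, measuring inhibition of SENP7.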
T1 sequence (Q9BQF6 whole entry): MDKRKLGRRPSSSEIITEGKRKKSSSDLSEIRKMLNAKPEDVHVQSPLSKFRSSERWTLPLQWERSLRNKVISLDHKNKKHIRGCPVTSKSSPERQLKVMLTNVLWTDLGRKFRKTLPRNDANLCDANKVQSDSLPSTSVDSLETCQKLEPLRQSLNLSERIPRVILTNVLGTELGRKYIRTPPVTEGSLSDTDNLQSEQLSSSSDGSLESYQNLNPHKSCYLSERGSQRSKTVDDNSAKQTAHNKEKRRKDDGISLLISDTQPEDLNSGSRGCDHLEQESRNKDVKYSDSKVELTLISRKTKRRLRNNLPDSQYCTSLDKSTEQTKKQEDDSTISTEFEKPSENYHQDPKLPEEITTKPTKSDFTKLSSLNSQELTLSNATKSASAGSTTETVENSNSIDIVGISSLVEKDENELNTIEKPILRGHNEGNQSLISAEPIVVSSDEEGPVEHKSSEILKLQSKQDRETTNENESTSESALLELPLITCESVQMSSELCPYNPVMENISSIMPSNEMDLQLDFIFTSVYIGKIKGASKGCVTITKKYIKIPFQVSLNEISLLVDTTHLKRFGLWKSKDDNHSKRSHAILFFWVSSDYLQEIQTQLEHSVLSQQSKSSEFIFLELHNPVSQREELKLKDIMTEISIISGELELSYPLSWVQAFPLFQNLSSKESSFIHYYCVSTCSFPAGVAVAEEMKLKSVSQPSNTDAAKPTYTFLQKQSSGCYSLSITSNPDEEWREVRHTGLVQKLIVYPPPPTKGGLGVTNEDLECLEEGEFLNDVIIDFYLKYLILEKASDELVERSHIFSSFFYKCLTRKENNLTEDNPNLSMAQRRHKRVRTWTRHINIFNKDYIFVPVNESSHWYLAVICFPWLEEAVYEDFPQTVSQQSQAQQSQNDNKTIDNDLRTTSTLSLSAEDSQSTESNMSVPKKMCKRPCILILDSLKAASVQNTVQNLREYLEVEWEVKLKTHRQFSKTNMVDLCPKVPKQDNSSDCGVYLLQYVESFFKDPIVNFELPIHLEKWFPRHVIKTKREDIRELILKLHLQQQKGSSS
The experiment is classed as functional.

Experiment [8] deals with BJ. Briefly: growth inhibition of engineered Ras-driven BJ cells – cell-based, alamar blue fluorescence, cherrypicked samples, dose response (AID 2631).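 Also: confirmatory dose-response assay in RAS-dependent BJ fibroblasts engineered with TERT, LT and ST, with cytotoxicity read by fluorescence.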 The experiment is classed as functional. The settings on record: Homo sapiens. (In general: Alamar Blue is a resazurin reagent that responds to reducing activity.)
Experiment [9] can be described thus: viability loss in Vero cells – cytotoxicity control for Vif-APOBEC3G degradation inhibitor project, dose response (AID 1117358). The experiment is classed as functional. The settings on record: Vero.
Experiment [10] concerns the target T2, Hexokinase HKDC1 (Homo sapiens, UniProt Q2TB90).
T2 sequence (Q2TB90 whole entry): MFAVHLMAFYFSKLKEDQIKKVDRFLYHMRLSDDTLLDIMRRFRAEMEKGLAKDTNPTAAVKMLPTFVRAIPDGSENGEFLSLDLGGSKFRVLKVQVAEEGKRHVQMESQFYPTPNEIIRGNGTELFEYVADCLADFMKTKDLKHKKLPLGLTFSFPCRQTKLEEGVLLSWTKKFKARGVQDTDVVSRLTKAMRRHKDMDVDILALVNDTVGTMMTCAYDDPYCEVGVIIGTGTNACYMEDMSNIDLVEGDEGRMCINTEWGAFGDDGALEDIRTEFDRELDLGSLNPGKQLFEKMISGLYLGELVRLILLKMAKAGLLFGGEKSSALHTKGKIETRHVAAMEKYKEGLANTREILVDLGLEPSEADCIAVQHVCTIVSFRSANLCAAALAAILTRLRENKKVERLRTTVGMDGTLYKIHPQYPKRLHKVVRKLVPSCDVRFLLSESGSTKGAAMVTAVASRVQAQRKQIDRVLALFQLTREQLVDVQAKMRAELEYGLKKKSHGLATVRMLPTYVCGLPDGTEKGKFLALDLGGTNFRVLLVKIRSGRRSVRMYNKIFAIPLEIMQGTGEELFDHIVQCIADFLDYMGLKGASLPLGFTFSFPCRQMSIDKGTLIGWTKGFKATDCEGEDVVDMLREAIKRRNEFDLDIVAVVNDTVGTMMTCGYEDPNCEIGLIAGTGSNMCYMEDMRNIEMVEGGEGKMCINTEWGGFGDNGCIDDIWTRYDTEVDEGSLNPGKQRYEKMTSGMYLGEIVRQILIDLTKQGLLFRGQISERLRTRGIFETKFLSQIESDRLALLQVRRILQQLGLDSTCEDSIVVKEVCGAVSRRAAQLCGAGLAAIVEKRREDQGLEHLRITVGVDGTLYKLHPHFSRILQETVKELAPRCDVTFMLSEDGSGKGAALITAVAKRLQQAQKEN
The experiment in a line: inhibition of HKDC1 glucose phosphorylation – biochemical, W721R variant, dose response (AID 504729). In kind it is functional.

Experiment [11] is described as follows: bead-based luminescence quenchers, dual-tagged ARNT – biochemical, AlphaScreen, cherry-pick, artefact control for ARNT-TACC3 interaction inhibitor project, dose response (AID 651705).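 Also: AlphaScreen bead proximity signal that flags compounds interfering with the detection technology; potency reflects signal decrease which marks the compound as an assay artifact.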 In kind it is functional. On the technique in general: In Alpha technology, singlet oxygen from a donor bead excites a nearby acceptor bead.
The nature of experiment [12]: luciferase reporter signal suppression in cells – H4 neuroglioma cells, luminescence, dose response (AID 1990). In kind it is functional, cell-based.
Experiment [13] in a line: viability loss in HeLa cells – cytotoxicity control for MgcRacGAP inhibitor project, dose response (AID 624300). The experiment is classed as functional.
Experiment [14] addresses Glutathione-S-transferase (Schistosoma japonicum, UniProt Q26513). Briefly: GST-antibody interaction or FRET quenching – biochemical, TR-FRET, artefact control for Vif-APOBEC3G degradation inhibitor project, dose response (AID 1117362). In kind it is functional. For orientation: In TR-FRET formats the signal depends on donor and acceptor labels being close together.

Genome polyprotein, sequence (P29990 2492-3391 limits assumed): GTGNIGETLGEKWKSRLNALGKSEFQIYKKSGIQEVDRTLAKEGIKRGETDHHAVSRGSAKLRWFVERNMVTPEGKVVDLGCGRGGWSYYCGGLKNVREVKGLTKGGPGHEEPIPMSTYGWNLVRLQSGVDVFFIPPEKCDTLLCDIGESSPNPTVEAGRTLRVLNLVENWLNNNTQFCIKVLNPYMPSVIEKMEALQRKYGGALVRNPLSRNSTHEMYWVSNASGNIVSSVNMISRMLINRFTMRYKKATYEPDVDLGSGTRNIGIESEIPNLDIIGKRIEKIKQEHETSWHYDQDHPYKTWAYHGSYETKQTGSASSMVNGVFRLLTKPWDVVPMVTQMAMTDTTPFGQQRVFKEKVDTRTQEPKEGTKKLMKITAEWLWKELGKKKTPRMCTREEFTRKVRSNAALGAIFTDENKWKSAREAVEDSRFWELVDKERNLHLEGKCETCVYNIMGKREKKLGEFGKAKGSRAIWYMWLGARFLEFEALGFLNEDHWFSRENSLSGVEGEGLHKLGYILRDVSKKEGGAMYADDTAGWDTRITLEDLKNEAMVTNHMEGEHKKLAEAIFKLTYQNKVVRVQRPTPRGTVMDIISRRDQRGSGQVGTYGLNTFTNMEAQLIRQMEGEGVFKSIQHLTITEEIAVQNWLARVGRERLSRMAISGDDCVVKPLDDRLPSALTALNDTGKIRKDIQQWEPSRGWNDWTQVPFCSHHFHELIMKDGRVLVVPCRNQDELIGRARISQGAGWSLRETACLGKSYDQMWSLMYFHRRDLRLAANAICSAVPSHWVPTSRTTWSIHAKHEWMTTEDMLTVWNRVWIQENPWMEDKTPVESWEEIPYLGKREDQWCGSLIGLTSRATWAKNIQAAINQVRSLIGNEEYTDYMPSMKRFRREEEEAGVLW
Glutathione-S-transferase, sequence (Q26513 whole entry): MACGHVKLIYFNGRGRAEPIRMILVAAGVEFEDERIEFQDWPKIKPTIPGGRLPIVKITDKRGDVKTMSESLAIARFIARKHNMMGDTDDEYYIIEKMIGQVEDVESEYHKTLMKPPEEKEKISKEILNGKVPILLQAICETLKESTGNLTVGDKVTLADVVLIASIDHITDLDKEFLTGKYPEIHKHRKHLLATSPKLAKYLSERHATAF
G-protein coupled receptor 35, sequence (Q9HC97 whole entry): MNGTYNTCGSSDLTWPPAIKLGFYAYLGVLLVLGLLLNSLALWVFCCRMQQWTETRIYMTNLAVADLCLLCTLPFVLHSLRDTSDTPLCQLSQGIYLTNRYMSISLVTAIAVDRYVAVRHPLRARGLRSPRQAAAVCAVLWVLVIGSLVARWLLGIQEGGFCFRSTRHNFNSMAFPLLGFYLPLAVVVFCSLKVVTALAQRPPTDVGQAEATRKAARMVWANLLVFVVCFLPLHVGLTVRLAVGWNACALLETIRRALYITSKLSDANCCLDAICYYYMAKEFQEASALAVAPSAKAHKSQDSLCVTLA
DNA damage-inducible transcript 3 protein, sequence (P35639 whole entry): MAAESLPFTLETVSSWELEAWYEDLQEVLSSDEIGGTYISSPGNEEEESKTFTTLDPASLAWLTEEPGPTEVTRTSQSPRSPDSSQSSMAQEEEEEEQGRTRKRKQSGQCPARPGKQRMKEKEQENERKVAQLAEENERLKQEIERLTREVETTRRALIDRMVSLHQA

One may read the IC50 as the point on the concentration scale where inhibition reaches its midpoint. The term EC50 denotes the midpoint of the concentration-response curve. Take `CCc1nnc(NS(=O)(=O)c2ccc(NC(=S)NC(=O)/C=C/c3ccc(C(C)C)cc3)cc2)s1`: the values for the IC50 in experiment [1] and in experiment [4] were 1.59 µM (active) and 50 µM (active), respectively. Also, the EC50 in experiment [2] was > 50 µM (active). Also, in experiment [3], the “Absolute IC50 (CHOP)” value amounted to 10 µM.
Usually CC50 stands for the concentration at which the toxic effect on the cells reaches its halfway point. As for `O=C(/C=C/c1ccco1)Nc1ccc(Oc2ccccc2)cc1`, the EC50 is > 150 µM (not active) in [5], 18.1 µM (active) in [6] and 14.6 µM (active) in experiment [8]. Besides, the IC50 in [7] is 3.82 µM (active). Besides, the CC50 in experiment [9] is > 40 µM (active).
Usually AC50 stands for the concentration at which the activity in the assay is half-maximal. For `COc1ccc(S(=O)(=O)Nc2cc(SCC(=O)O)c(O)c3ccccc23)cc1`, the IC50 in experiment [7] was 19.9 µM (active); in experiment [10], 12 µM (active); in [4] it was 7.22 µM (active). Also, the AC50 in experiment [11] is 104 µM (active).
Regarding `O=C1C(Nc2ccc(O)cc2)=C/C(=N/S(=O)(=O)c2cccs2)c2ccccc21`, in [12], the EC50 was 2.88 µM (inconclusive). Besides, the IC50 in experiment [10] was 8.31 µM (active). Besides, the CC50 in [13] was 2.59 µM (active).
`CC1CC(=O)c2c(cc3c(-c4c(O)cc(O)c5c(O)c6c(cc45)OC(C)CC6=O)c(O)cc(O)c3c2O)O1` (configuration not stated) [CEPHALOCHROMIN]: the IC50 in experiment [14] is > 100 µM (active).

The record behind these values is ChEMBL document CHEMBL1201862, “PubChem BioAssay data set” (2004).
